From the kinase profiling compilation of Christmann-Franck et al. (2016)

Experiments:
Test in all cases: radiometric filter-binding kinase assay, Kinase HotSpot
Conditions in all cases: compound 0.5 µM; ATP 10 µM
TAOK1 (human) = TAOK1 (human) (UniProt Q7L7X3)
NUAK1 (human) = NUAK1 (human) (UniProt O60285)
AURKB (human) = AURKB (human) (UniProt Q96GD4)
DYRK2 (human) = DYRK2 (human) (UniProt Q92630)
MAP3K3 (human) = MAP3K3 (human) (UniProt Q99759)
EPHB4 (human) = EPHB4 (human) (UniProt P54760)
CSNK1G2 (human) = CSNK1G2 (human) (UniProt P78368)
PTK6 (human) = PTK6 (human) (UniProt Q13882)
EPHA3 (human) = EPHA3 (human) (UniProt P29320)
CSNK1G3 (human) = CSNK1G3 (human) (UniProt Q9Y6M4)
STK16 (human) = STK16 (human) (UniProt O75716)
Sequence of STK16 (human) (O75716 whole entry, looked up): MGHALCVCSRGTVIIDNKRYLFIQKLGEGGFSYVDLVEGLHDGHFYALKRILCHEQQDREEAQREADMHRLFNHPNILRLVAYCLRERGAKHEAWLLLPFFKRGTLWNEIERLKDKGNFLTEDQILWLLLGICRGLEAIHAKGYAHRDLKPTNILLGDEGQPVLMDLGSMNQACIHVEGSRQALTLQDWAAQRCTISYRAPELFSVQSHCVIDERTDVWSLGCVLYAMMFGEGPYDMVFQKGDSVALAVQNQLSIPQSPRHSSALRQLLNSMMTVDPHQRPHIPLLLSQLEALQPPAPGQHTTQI

DMPK (human) = DMPK (human) (UniProt Q09013)
LCK (human) = LCK (human) (UniProt P06239)
Sequence of LCK (human) (P06239 whole entry, looked up): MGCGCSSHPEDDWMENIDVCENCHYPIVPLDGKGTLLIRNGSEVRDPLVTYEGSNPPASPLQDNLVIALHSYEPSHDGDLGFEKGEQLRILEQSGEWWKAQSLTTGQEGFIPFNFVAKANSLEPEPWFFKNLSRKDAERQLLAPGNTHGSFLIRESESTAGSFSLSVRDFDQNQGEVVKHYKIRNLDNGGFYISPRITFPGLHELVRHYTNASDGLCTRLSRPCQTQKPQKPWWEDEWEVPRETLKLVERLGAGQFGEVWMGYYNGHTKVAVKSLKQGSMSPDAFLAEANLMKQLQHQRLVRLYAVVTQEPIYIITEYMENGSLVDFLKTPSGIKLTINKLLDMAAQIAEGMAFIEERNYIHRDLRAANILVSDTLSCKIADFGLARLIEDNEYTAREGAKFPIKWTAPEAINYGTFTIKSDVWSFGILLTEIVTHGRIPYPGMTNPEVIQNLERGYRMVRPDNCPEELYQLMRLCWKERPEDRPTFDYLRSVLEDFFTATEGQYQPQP

CDK7 CCNH MNAT1 (human) = CDK7 CCNH MNAT1 (human) (UniProt P50613+P51948+P51946)
STK4 (human) = STK4 (human) (UniProt Q13043)
MAPKAPK2 (human) = MAPKAPK2 (human) (UniProt P49137)
Sequence of MAPKAPK2 (human) (P49137 whole entry, looked up): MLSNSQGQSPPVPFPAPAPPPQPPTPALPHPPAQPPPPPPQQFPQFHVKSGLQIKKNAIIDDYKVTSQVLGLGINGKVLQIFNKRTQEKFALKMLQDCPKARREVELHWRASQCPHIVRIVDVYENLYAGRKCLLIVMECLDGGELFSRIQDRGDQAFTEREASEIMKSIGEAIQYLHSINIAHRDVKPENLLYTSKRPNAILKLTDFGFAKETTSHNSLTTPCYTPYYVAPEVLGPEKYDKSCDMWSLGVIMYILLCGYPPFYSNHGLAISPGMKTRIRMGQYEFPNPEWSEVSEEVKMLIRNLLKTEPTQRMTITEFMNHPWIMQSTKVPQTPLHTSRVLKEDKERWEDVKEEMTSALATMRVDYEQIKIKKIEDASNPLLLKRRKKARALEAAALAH

PIM2 (human) = PIM2 (human) (UniProt Q9P1W9)
FES (human) = FES (human) (UniProt P07332)
Sequence of FES (human) (P07332 whole entry, looked up): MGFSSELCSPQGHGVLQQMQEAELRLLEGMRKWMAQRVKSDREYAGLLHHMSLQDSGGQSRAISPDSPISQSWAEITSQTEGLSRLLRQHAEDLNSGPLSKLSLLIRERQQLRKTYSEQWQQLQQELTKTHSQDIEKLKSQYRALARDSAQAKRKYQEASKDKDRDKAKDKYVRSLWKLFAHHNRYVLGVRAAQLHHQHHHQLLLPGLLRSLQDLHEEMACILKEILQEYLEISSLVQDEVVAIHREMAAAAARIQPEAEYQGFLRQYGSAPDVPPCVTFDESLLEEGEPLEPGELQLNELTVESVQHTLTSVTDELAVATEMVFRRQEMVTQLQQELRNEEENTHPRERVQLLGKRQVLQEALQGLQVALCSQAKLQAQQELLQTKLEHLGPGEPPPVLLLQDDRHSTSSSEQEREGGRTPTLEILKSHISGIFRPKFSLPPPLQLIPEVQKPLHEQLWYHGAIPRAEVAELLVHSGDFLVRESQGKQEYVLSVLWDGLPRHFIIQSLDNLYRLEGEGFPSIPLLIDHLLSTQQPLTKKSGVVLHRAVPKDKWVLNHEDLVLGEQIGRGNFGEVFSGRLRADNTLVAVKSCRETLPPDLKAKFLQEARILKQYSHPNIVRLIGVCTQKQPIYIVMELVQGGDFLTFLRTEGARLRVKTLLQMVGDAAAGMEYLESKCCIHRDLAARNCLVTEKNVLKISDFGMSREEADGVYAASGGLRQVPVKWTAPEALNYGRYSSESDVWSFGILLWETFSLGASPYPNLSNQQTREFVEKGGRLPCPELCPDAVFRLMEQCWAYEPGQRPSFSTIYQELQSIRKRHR

CAMK1G (human) = CAMK1G (human) (UniProt Q96NX5)
PRKCB1 (human) = PRKCB1 (human) (UniProt P05771)
TXK (human) = TXK (human) (UniProt P42681)
DAPK2 (human) = DAPK2 (human) (UniProt Q9UIK4)
NEK6 (human) = NEK6 (human) (UniProt Q9HC98)
NEK3 (human) = NEK3 (human) (UniProt P51956)
MARK2 (human) = MARK2 (human) (UniProt Q7KZI7)
MAPKAPK5 (human) = MAPKAPK5 (human) (UniProt Q8IW41)
AKT1 (human) = AKT1 (human) (UniProt P31749)
STK3 (human) = STK3 (human) (UniProt Q13188)
CAMKK1 (human) = CAMKK1 (human) (UniProt Q8N5S9)
INSR (human) = INSR (human) (UniProt P06213)
Sequence of INSR (human) (P06213 whole entry, looked up): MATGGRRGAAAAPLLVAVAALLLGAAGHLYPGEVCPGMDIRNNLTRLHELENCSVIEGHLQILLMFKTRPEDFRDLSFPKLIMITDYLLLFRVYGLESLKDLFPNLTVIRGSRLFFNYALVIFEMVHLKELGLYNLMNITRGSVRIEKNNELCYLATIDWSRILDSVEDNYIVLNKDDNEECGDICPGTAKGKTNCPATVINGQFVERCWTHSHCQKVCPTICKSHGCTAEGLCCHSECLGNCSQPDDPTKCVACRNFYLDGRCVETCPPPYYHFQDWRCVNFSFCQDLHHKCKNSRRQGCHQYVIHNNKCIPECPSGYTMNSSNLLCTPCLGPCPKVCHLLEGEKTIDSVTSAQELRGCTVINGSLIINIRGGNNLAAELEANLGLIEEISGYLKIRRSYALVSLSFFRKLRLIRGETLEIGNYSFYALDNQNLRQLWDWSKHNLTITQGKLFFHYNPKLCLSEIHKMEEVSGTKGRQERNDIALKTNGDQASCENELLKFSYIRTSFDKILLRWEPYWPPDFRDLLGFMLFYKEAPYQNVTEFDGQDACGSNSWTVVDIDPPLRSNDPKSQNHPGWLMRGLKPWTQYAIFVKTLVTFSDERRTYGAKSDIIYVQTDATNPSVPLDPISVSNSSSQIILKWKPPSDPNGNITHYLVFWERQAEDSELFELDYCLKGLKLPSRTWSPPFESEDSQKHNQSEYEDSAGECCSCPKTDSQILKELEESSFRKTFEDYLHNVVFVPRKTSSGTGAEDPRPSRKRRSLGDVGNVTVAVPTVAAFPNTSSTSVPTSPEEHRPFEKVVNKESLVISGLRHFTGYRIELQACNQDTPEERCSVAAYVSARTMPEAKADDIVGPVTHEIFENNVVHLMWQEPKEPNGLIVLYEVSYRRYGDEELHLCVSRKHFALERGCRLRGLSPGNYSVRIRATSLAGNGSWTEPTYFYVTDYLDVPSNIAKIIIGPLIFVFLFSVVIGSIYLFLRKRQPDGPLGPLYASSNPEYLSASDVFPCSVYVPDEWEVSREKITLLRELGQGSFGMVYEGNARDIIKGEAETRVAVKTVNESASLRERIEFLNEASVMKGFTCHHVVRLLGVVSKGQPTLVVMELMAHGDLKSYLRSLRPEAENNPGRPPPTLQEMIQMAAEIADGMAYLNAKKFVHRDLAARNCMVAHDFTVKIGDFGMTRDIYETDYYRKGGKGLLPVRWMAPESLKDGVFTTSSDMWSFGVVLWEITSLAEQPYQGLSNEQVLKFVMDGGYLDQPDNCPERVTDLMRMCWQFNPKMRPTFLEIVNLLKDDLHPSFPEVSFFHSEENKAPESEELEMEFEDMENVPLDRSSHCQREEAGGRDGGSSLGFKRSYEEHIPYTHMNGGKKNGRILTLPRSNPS

DYRK1B (human) = DYRK1B (human) (UniProt Q9Y463)
MAPK12 (human) = MAPK12 (human) (UniProt P53778)
PRKCZ (human) = PRKCZ (human) (UniProt Q05513)
MAP4K4 (human) = MAP4K4 (human) (UniProt O95819)
IRAK4 (human) = IRAK4 (human) (UniProt Q9NWZ3)
FGFR1 (human) = FGFR1 (human) (UniProt P11362)
AURKA (human) = AURKA (human) (UniProt O14965)
NTRK3 (human) = NTRK3 (human) (UniProt Q16288)
AKT2 (human) = AKT2 (human) (UniProt P31751)
TTK (human) = TTK (human) (UniProt P33981)
FGR (human) = FGR (human) (UniProt P09769)
AXL (human) = AXL (human) (UniProt P30530)

Sequence of MAP3K3 (human) (Q99759 whole entry, looked up): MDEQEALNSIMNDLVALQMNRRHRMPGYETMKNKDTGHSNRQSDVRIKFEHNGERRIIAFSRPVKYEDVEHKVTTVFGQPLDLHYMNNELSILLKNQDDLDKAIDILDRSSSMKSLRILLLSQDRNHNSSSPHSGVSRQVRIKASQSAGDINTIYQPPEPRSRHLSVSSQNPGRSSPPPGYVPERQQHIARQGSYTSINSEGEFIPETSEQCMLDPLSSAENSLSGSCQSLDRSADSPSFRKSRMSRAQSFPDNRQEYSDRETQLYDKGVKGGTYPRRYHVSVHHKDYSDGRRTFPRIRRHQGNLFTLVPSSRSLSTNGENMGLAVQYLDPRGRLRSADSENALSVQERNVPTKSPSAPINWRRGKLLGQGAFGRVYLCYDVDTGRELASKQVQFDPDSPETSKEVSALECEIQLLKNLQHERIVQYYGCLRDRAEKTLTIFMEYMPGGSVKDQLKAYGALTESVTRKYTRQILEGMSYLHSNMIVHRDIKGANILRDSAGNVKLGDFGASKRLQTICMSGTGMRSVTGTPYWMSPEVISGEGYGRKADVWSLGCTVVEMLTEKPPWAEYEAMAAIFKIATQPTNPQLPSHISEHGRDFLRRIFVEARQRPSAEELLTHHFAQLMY
Sequence of TAOK1 (human) (Q7L7X3 whole entry, looked up): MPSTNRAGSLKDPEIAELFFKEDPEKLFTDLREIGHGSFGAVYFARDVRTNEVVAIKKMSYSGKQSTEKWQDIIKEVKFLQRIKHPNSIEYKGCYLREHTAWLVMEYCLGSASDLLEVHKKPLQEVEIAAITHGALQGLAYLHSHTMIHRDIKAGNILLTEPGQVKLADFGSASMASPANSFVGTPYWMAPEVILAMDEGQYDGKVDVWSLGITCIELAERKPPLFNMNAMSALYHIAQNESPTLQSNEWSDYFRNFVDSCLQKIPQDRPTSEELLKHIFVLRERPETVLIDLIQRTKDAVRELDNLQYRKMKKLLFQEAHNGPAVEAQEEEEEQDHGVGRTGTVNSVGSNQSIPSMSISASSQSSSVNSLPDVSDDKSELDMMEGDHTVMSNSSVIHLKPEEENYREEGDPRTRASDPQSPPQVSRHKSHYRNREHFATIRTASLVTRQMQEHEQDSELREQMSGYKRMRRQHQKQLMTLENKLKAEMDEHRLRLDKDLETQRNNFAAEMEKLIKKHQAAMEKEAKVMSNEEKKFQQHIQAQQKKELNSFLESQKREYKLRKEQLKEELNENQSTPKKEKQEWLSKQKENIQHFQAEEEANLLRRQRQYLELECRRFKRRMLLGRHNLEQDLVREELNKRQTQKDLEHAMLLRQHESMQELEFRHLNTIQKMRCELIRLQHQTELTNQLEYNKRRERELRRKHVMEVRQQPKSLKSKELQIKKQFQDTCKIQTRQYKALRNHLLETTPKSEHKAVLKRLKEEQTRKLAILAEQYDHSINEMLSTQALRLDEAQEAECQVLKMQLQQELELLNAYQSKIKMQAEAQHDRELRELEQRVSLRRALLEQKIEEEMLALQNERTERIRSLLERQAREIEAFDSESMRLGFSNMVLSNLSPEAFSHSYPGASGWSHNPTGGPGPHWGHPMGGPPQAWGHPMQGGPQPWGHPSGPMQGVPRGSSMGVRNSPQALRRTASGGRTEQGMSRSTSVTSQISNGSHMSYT

## Cc1cncc2cccc(S(=O)(=O)N3CCCN(C(=O)CN)C[C@H]3C)c12
TAOK1 (human)
  residual activity: 84.2%
NUAK1 (human)
  residual activity: 91.1%
AURKB (human)
  residual activity: 34.9%
DYRK2 (human)
  residual activity: 101%
MAP3K3 (human)
  residual activity: 99.1%
EPHB4 (human)
  residual activity: 85.1%
CSNK1G2 (human)
  residual activity: 95.1%
PTK6 (human)
  residual activity: 87.8%
EPHA3 (human)
  residual activity: 98.7%
CSNK1G3 (human)
  residual activity: 106%
STK16 (human)
  residual activity: 97.9%
DMPK (human)
  residual activity: 105%
LCK (human)
  residual activity: 97%
CDK7 CCNH MNAT1 (human)
  residual activity: 98%
STK4 (human)
  residual activity: 95.4%
MAPKAPK2 (human)
  residual activity: 103%
PIM2 (human)
  residual activity: 104%
FES (human)
  residual activity: 102%
CAMK1G (human)
  residual activity: 94.6%
PRKCB1 (human)
  residual activity: 99.4%
TXK (human)
  residual activity: 103%
DAPK2 (human)
  residual activity: 103%
NEK6 (human)
  residual activity: 93.3%
NEK3 (human)
  residual activity: 91.1%
MARK2 (human)
  residual activity: 89.1%
MAPKAPK5 (human)
  residual activity: 94.2%
AKT1 (human)
  residual activity: 104%
STK3 (human)
  residual activity: 104%
CAMKK1 (human)
  residual activity: 115%
INSR (human)
  residual activity: 88.9%
DYRK1B (human)
  residual activity: 101%
MAPK12 (human)
  residual activity: 107%
PRKCZ (human)
  residual activity: 91.2%
MAP4K4 (human)
  residual activity: 87.6%
IRAK4 (human)
  residual activity: 109%
FGFR1 (human)
  residual activity: 85.7%
AURKA (human)
  residual activity: 64.7%
NTRK3 (human)
  residual activity: 87.5%
AKT2 (human)
  residual activity: 97.2%
TTK (human)
  residual activity: 111%
FGR (human)
  residual activity: 94.1%
AXL (human)
  residual activity: 98.8%

## c1ccc2c(-c3ccncc3)c[nH]c2c1
TAOK1 (human)
  residual activity: 88.4%
NUAK1 (human)
  residual activity: 94.8%
AURKB (human)
  residual activity: 95.9%
DYRK2 (human)
  residual activity: 77.5%
MAP3K3 (human)
  residual activity: 103%
EPHB4 (human)
  residual activity: 89.7%
CSNK1G2 (human)
  residual activity: 95%
PTK6 (human)
  residual activity: 85.5%
EPHA3 (human)
  residual activity: 107%
CSNK1G3 (human)
  residual activity: 108%
STK16 (human)
  residual activity: 110%
DMPK (human)
  residual activity: 109%
LCK (human)
  residual activity: 102%
CDK7 CCNH MNAT1 (human)
  residual activity: 97%
STK4 (human)
  residual activity: 103%
MAPKAPK2 (human)
  residual activity: 101%
PIM2 (human)
  residual activity: 105%
FES (human)
  residual activity: 105%
CAMK1G (human)
  residual activity: 99%
PRKCB1 (human)
  residual activity: 95.1%
TXK (human)
  residual activity: 104%
DAPK2 (human)
  residual activity: 108%
NEK6 (human)
  residual activity: 93.4%
NEK3 (human)
  residual activity: 91.6%
MARK2 (human)
  residual activity: 102%
MAPKAPK5 (human)
  residual activity: 96.1%
AKT1 (human)
  residual activity: 100%
STK3 (human)
  residual activity: 112%
CAMKK1 (human)
  residual activity: 122%
INSR (human)
  residual activity: 90.5%
DYRK1B (human)
  residual activity: 90.5%
MAPK12 (human)
  residual activity: 104%
PRKCZ (human)
  residual activity: 98.3%
MAP4K4 (human)
  residual activity: 54.4%
IRAK4 (human)
  residual activity: 109%
FGFR1 (human)
  residual activity: 92.7%
AURKA (human)
  residual activity: 78%
NTRK3 (human)
  residual activity: 100%
AKT2 (human)
  residual activity: 96.4%
TTK (human)
  residual activity: 112%
FGR (human)
  residual activity: 94.5%
AXL (human)
  residual activity: 99.8%

## CN(C)c1ccc(/C=C2\C(=O)Nc3ccccc32)cc1
TAOK1 (human)
  residual activity: 94.7%
NUAK1 (human)
  residual activity: 80.4%
AURKB (human)
  residual activity: 61.4%
DYRK2 (human)
  residual activity: 100%
MAP3K3 (human)
  residual activity: 104%
EPHB4 (human)
  residual activity: 97.4%
CSNK1G2 (human)
  residual activity: 96.7%
PTK6 (human)
  residual activity: 98.8%
EPHA3 (human)
  residual activity: 102%
CSNK1G3 (human)
  residual activity: 101%
STK16 (human)
  residual activity: 87.9%
DMPK (human)
  residual activity: 105%
LCK (human)
  residual activity: 93%
CDK7 CCNH MNAT1 (human)
  residual activity: 99.4%
STK4 (human)
  residual activity: 93.2%
MAPKAPK2 (human)
  residual activity: 106%
PIM2 (human)
  residual activity: 82.4%
FES (human)
  residual activity: 97.8%
CAMK1G (human)
  residual activity: 99.9%
PRKCB1 (human)
  residual activity: 96.1%
TXK (human)
  residual activity: 96.1%
DAPK2 (human)
  residual activity: 105%
NEK6 (human)
  residual activity: 96.9%
NEK3 (human)
  residual activity: 95.2%
MARK2 (human)
  residual activity: 105%
MAPKAPK5 (human)
  residual activity: 98.6%
AKT1 (human)
  residual activity: 101%
STK3 (human)
  residual activity: 100%
CAMKK1 (human)
  residual activity: 98.6%
INSR (human)
  residual activity: 93.4%
DYRK1B (human)
  residual activity: 106%
MAPK12 (human)
  residual activity: 102%
PRKCZ (human)
  residual activity: 112%
MAP4K4 (human)
  residual activity: 74.5%
IRAK4 (human)
  residual activity: 104%
FGFR1 (human)
  residual activity: 92%
AURKA (human)
  residual activity: 104%
NTRK3 (human)
  residual activity: 36.3%
AKT2 (human)
  residual activity: 98.1%
TTK (human)
  residual activity: 99.7%
FGR (human)
  residual activity: 90%
AXL (human)
  residual activity: 93.8%

## O=C1NC(=O)c2c1c1c3ccccc3[nH]c1n1cncc21
TAOK1 (human)
  residual activity: 135%
NUAK1 (human)
  residual activity: 12.1%
AURKB (human)
  residual activity: 25.2%
DYRK2 (human)
  residual activity: 64.1%
MAP3K3 (human)
  residual activity: 86.9%
EPHB4 (human)
  residual activity: 105%
CSNK1G2 (human)
  residual activity: 63.4%
PTK6 (human)
  residual activity: 89%
EPHA3 (human)
  residual activity: 105%
CSNK1G3 (human)
  residual activity: 87%
STK16 (human)
  residual activity: 70.9%
DMPK (human)
  residual activity: 101%
LCK (human)
  residual activity: 87.1%
CDK7 CCNH MNAT1 (human)
  residual activity: 92.3%
STK4 (human)
  residual activity: 42.7%
MAPKAPK2 (human)
  residual activity: 98.9%
PIM2 (human)
  residual activity: 34.4%
FES (human)
  residual activity: 117%
CAMK1G (human)
  residual activity: 94.7%
PRKCB1 (human)
  residual activity: 95%
TXK (human)
  residual activity: 76.4%
DAPK2 (human)
  residual activity: 43.8%
NEK6 (human)
  residual activity: 88.7%
NEK3 (human)
  residual activity: 89.3%
MARK2 (human)
  residual activity: 34.7%
MAPKAPK5 (human)
  residual activity: 123%
AKT1 (human)
  residual activity: 102%
STK3 (human)
  residual activity: 41%
CAMKK1 (human)
  residual activity: 63.5%
INSR (human)
  residual activity: 17.9%
DYRK1B (human)
  residual activity: 65.9%
MAPK12 (human)
  residual activity: 85.9%
PRKCZ (human)
  residual activity: 84.8%
MAP4K4 (human)
  residual activity: 21.2%
IRAK4 (human)
  residual activity: 84.8%
FGFR1 (human)
  residual activity: 55.2%
AURKA (human)
  residual activity: 34.8%
NTRK3 (human)
  residual activity: 26.1%
AKT2 (human)
  residual activity: 121%
TTK (human)
  residual activity: 79%
FGR (human)
  residual activity: 94.8%
AXL (human)
  residual activity: 91.7%
